Experimental data taken from ChEMBL document CHEMBL3885861, “Open TG-GATES”.

Organism: Rattus norvegicus
Assay: Open TG-GATES - Regimen: Daily Repeat
Assay type: toxicity, organism-based, Sprague-Dawley
Parameters: regimen Daily Repeat, gender Male, age 6 weeks
Settings: in vivo, po, 300 mg/kg, route gavage, dose level Middle; for APTT / Bas / Eos / Fbg / Hb / Ht / Lym / MCH / MCHC / MCV / Mono / Neu / PT / Plat / RBC / Ret / WBC: tissue Blood; for KIDNEY_L / KIDNEY_R / KIDNEY_TOTAL: tissue Kidney; for LIVER: tissue Liver; for A/G / ALP / ALT / AST / BUN / CRE / Ca / Cl / DBIL / GLC / IP / K / LDH / Na / PL / RALB / TBIL / TC / TG / TP / gamma-GTP: tissue Plasma

## CN/C(=N/CCSCc1nc[nH]c1C)NC#N [CIMETIDINE]
72 h, time 3 day
  TERMINAL_BW: 228.5 g
  APTT: 18.9 s
  Bas: 0%
  Eos: 1%
  Fbg: 228.2 mg/dL
  Hb: 13.1 g/dL
  Ht: 39.2%
  Lym: 80%
  MCH: 21.3 pg
  MCHC: 33.6%
  MCV: 63.5 fL
  Mono: 2.6%
  Neu: 14.8%
  PT: 12.4 s
  Plat: 125.9 x10_4/uL
  RBC: 616.6 x10_4/ul
  Ret: 6%
  WBC: 104.1 x10_2/uL
  KIDNEY_L: 1 g
  KIDNEY_R: 1 g
  KIDNEY_TOTAL: 2 g
  LIVER: 11.4 g
  A/G: 1.6
  ALP: 1094.2 IU/L
  ALT: 37.6 IU/L
  AST: 67.2 IU/L
  BUN: 15.8 mg/dL
  CRE: 0.4 mg/dL
  Ca: 11.1 mg/dL
  Cl: 102.4 meq/L
  DBIL: 0.1 mg/dL
  GLC: 195 mg/dL
  IP: 7.2 mg/dL
  K: 4.1 meq/L
  LDH: 140.8 IU/L
  Na: 140.8 meq/L
  PL: 156.2 mg/dL
  RALB: 3.5 g/dL
  TBIL: 0.2 mg/dL
  TC: 79.2 mg/dL
  TG: 119.8 mg/dL
  TP: 5.7 g/dL
  gamma-GTP: 0.6 IU/L
[…], time 7 day
  TERMINAL_BW: 259.4 g
  APTT: 19.2 s
  Bas: 0%
  Eos: 1%
  Fbg: 222.6 mg/dL
  Hb: 13.6 g/dL
  Ht: 40.9%
  Lym: 78.2%
  MCH: 21 pg
  MCHC: 33.1%
  MCV: 63.2 fL
  Mono: 2.6%
  Neu: 16.6%
  PT: 12.6 s
  Plat: 127.8 x10_4/uL
  RBC: 646.8 x10_4/ul
  Ret: 5.3%
  WBC: 107.7 x10_2/uL
  KIDNEY_L: 1.1 g
  KIDNEY_R: 1.1 g
  KIDNEY_TOTAL: 2.2 g
  LIVER: 12.3 g
  A/G: 1.5
  ALP: 951.8 IU/L
  ALT: 32.2 IU/L
  AST: 64.6 IU/L
  BUN: 17.6 mg/dL
  CRE: 0.4 mg/dL
  Ca: 10.8 mg/dL
  Cl: 102.4 meq/L
  DBIL: 0.094 mg/dL
  GLC: 234.6 mg/dL
  IP: 7.6 mg/dL
  K: 3.8 meq/L
  LDH: 168 IU/L
  Na: 141.4 meq/L
  PL: 156.2 mg/dL
  RALB: 3.4 g/dL
  TBIL: 0.1 mg/dL
  TC: 73.4 mg/dL
  TG: 120 mg/dL
  TP: 5.6 g/dL
  gamma-GTP: 1.4 IU/L
[…], time 14 day
  TERMINAL_BW: 317.5 g
  APTT: 18.9 s
  Bas: 0%
  Eos: 1%
  Fbg: 222.4 mg/dL
  Hb: 14.2 g/dL
  Ht: 42.9%
  Lym: 80%
  MCH: 20 pg
  MCHC: 32.9%
  MCV: 60.6 fL
  Mono: 2.8%
  Neu: 15.8%
  PT: 12.7 s
  Plat: 125.7 x10_4/uL
  RBC: 709.6 x10_4/ul
  Ret: 4.3%
  WBC: 117.5 x10_2/uL
  KIDNEY_L: 1.2 g
  KIDNEY_R: 1.2 g
  KIDNEY_TOTAL: 2.4 g
  LIVER: 14.6 g
  A/G: 1.4
  ALP: 1080.4 IU/L
  ALT: 37.8 IU/L
  AST: 65.8 IU/L
  BUN: 19.2 mg/dL
  CRE: 0.4 mg/dL
  Ca: 10.5 mg/dL
  Cl: 102 meq/L
  DBIL: 0.1 mg/dL
  GLC: 216.2 mg/dL
  IP: 7.2 mg/dL
  K: 3.9 meq/L
  LDH: 176.4 IU/L
  Na: 140.6 meq/L
  PL: 164.2 mg/dL
  RALB: 3.3 g/dL
  TBIL: 0.2 mg/dL
  TC: 77.6 mg/dL
  TG: 129 mg/dL
  TP: 5.8 g/dL
  gamma-GTP: 1 IU/L
[…], time 28 day
  TERMINAL_BW: 390.1 g
  APTT: 18.7 s
  Bas: 0%
  Eos: 1%
  Fbg: 225.2 mg/dL
  Hb: 14.6 g/dL
  Ht: 42.1%
  Lym: 82.6%
  MCH: 19.5 pg
  MCHC: 34.6%
  MCV: 56.3 fL
  Mono: 2.2%
  Neu: 13.2%
  PT: 13 s
  Plat: 108.2 x10_4/uL
  RBC: 747.2 x10_4/ul
  Ret: 2.5%
  WBC: 140.1 x10_2/uL
  KIDNEY_L: 1.4 g
  KIDNEY_R: 1.4 g
  KIDNEY_TOTAL: 2.8 g
  LIVER: 16.3 g
  A/G: 1.3
  ALP: 725.6 IU/L
  ALT: 39.4 IU/L
  AST: 67 IU/L
  BUN: 18.6 mg/dL
  CRE: 0.5 mg/dL
  Ca: 10.1 mg/dL
  Cl: 101.8 meq/L
  DBIL: 0.1 mg/dL
  GLC: 253 mg/dL
  IP: 6.7 mg/dL
  K: 3.4 meq/L
  LDH: 183.8 IU/L
  Na: 140.2 meq/L
  PL: 148 mg/dL
  RALB: 3.3 g/dL
  TBIL: 0.2 mg/dL
  TC: 70.6 mg/dL
  TG: 128 mg/dL
  TP: 5.8 g/dL
  gamma-GTP: 1.2 IU/L
